Source: the supplement of paper PMC10883282

Legend:
Experiment in all cases: relative viability vs DMSO control (72 h) (fraction); higher = more viable cells
[1] = test system: RD-ES
Outline: (§1)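 After seeding at densities set for 80–90% confluence in 384-well plates, sarcoma cell lines waited 24 h before 2.5 µl of serially diluted compound was added. Source plates held 10 mM down to 0.0002 mM. Plates were incubated 72 h at 37 °C with 5% CO2, with 0.1% DMSO vehicle and a 5 µM positive control, and relative viability was taken from ATPLite as percent growth averaged over up to triplicate wells, with 1 set as full and 0 as none.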

[2] = test system: SYO-1
Outline: as §1

[3] = test system: SK-ES-1
Outline: as §1

[4] = test system: G401
Outline: as §1

[5] = test system: VA-ES-BJ
Outline: as §1

[6] = test system: KHOS-240S
Outline: as §1

[7] = test system: HT1080
Outline: as §1

[8] = test system: RD
Outline: as §1

[9] = test system: SW982
Outline: as §1

[10] = test system: SW1353
Outline: as §1

[11] = test system: SK-LMS-1
Outline: as §1

[12] = test system: MES-SA
Outline: as §1

CNC(=O)c1nnc(NC(=O)C2CC2)cc1Nc1cccc(-c2ncn(C)n2)c1OC
Conditions	relative viability
[1], 0.00017 µM	0.987
[1], 0.00051 µM	1.019
[1], 0.00152 µM	1.01
[1], 0.00457 µM	0.988
[1], 0.01372 µM	1.02
[1], 0.04115 µM	1.02
[1], 0.1235 µM	1.05
[1], 0.3704 µM	1.06
[1], 1.111 µM	1
[1], 3.333 µM	0.998
[1], 10 µM	0.847
[2], 0.00017 µM	0.958
[2], 0.00051 µM	0.969
[2], 0.00152 µM	0.924
[2], 0.00457 µM	0.937
[2], 0.01372 µM	0.952
[2], 0.04115 µM	0.935
[2], 0.1235 µM	0.924
[2], 0.3704 µM	0.888
[2], 1.111 µM	0.928
[2], 3.333 µM	0.983
[2], 10 µM	0.918
[3], 0.00017 µM	1.03
[3], 0.00051 µM	1.03
[3], 0.00152 µM	1.1
[3], 0.00457 µM	1.03
[3], 0.01372 µM	1.07
[3], 0.04115 µM	1.04
[3], 0.1235 µM	1.02
[3], 0.3704 µM	1.04
[3], 1.111 µM	0.968
[3], 3.333 µM	0.891
[3], 10 µM	0.517
[4], 0.00017 µM	1
[4], 0.00051 µM	0.988
[4], 0.00152 µM	1.03
[4], 0.00457 µM	1.03
[4], 0.01372 µM	1.074
[4], 0.04115 µM	1.02
[4], 0.1235 µM	1.04
[4], 0.3704 µM	1.031
[4], 1.111 µM	1.013
[4], 3.333 µM	0.999
[4], 10 µM	0.906
[5], 0.00017 µM	0.986
[5], 0.00051 µM	0.996
[5], 0.00152 µM	1.02
[5], 0.00457 µM	1.04
[5], 0.01372 µM	1.035
[5], 0.04115 µM	1.03
[5], 0.1235 µM	1.03
[5], 0.3704 µM	1.01
[5], 1.111 µM	1.04
[5], 3.333 µM	0.974
[5], 10 µM	0.828
[6], 0.00017 µM	1.08
[6], 0.00051 µM	1.07
[6], 0.00152 µM	1.059
[6], 0.00457 µM	1.05
[6], 0.01372 µM	1.07
[6], 0.04115 µM	1.04
[6], 0.1235 µM	1.06
[6], 0.3704 µM	1.07
[6], 1.111 µM	1.08
[6], 3.333 µM	1.06
[6], 10 µM	1.03
[7], 0.00017 µM	1.07
[7], 0.00051 µM	1.04
[7], 0.00152 µM	1.05
[7], 0.00457 µM	1.03
[7], 0.01372 µM	1.02
[7], 0.04115 µM	1.05
[7], 0.1235 µM	1.01
[7], 0.3704 µM	1.042
[7], 1.111 µM	1.1
[7], 3.333 µM	1.11
[7], 10 µM	0.995
[8], 0.00017 µM	1.1
[8], 0.00051 µM	1.11
[8], 0.00152 µM	1.12
[8], 0.00457 µM	1.12
[8], 0.01372 µM	1.1
[8], 0.04115 µM	1.09
[8], 0.1235 µM	1.11
[8], 0.3704 µM	1.08
[8], 1.111 µM	1.1
[8], 3.333 µM	1.09
[8], 10 µM	0.994
[9], 0.00017 µM	1.05
[9], 0.00051 µM	1.06
[9], 0.00152 µM	1.05
[9], 0.00457 µM	1.04
[9], 0.01372 µM	1.05
[9], 0.04115 µM	1.06
[9], 0.1235 µM	1.06
[9], 0.3704 µM	1.07
[9], 1.111 µM	1.06
[9], 3.333 µM	1.02
[9], 10 µM	0.722
[10], 0.00017 µM	0.962
[10], 0.00051 µM	0.988
[10], 0.00152 µM	0.968
[10], 0.00457 µM	1
[10], 0.01372 µM	0.985
[10], 0.04115 µM	0.982
[10], 0.1235 µM	0.978
[10], 0.3704 µM	0.964
[10], 1.111 µM	0.948
[10], 3.333 µM	0.9937
[10], 10 µM	0.911
[11], 0.00017 µM	1.09
[11], 0.00051 µM	1.09
[11], 0.00152 µM	1.06
[11], 0.00457 µM	1.08
[11], 0.01372 µM	1.1
[11], 0.04115 µM	1.06
[11], 0.1235 µM	1.08
[11], 0.3704 µM	1.06
[11], 1.111 µM	1.05
[11], 3.333 µM	1.06
[11], 10 µM	0.797
[12], 0.00017 µM	0.926
[12], 0.00051 µM	0.938
[12], 0.00152 µM	0.926
[12], 0.00457 µM	0.92
[12], 0.01372 µM	0.943
[12], 0.04115 µM	0.952
[12], 0.1235 µM	0.944
[12], 0.3704 µM	0.943
[12], 1.111 µM	0.923
[12], 3.333 µM	0.891
[12], 10 µM	0.669
